Assay results as given in patent publication US4401660A, “Ester derivatives of 5-O-mycaminosyl tylonolide and method of using same” (Eli Lilly and Company, priority 1981, dated 1983).
Where two headings read alike, the source gives them in different places.

Legend:
[1] = test system: Staphylococcus aureus S13E; experiment: MIC, standard agar-dilution assay (Table II); type: cell-based; design: unit not given here
Procedure: (§1) The MIC's in Table II were determined by standard agar-dilution assays. The MIC's in Table III were obtained using a conventional broth-dilution microtiter test.

[2] = test system: Staphylococcus aureus V41; experiment: MIC, standard agar-dilution assay (Table II); type: cell-based; design: unit not given here; settings: Staphylococcus aureus V41, penicillin-resistant strain
Procedure: as §1

[3] = test system: Staphylococcus aureus X1.1; experiment: MIC, standard agar-dilution assay (Table II); type: cell-based; design: unit not given here
Procedure: as §1

[4] = test system: Staphylococcus aureus X400; experiment: MIC, standard agar-dilution assay (Table II); type: cell-based; design: unit not given here; settings: Staphylococcus aureus X400, methicillin-resistant strain
Procedure: as §1

[5] = test system: Staphylococcus epidermidis EPI1; experiment: MIC, standard agar-dilution assay (Table II); type: cell-based; design: unit not given here
Procedure: as §1

[6] = test system: Staphylococcus epidermidis EPI2; experiment: MIC, standard agar-dilution assay (Table II); type: cell-based; design: unit not given here
Procedure: as §1

[7] = test system: Streptococcus Group D 9960; experiment: MIC, standard agar-dilution assay (Table II); type: cell-based; design: unit not given here
Procedure: as §1

[8] = test system: Streptococcus Group D X66; experiment: MIC, standard agar-dilution assay (Table II); type: cell-based; design: unit not given here
Procedure: as §1

[9] = test system: Streptococcus pneumoniae Park I; experiment: MIC, standard agar-dilution assay (Table II); type: cell-based; design: unit not given here
Procedure: as §1

[10] = test system: Streptococcus pyogenes C203; experiment: MIC, standard agar-dilution assay (Table II); type: cell-based; design: unit not given here
Procedure: as §1

[11] = test system: Mycoplasma gallisepticum; experiment: MIC, broth-dilution microtiter test (Table III); type: cell-based; design: unit not given here
Procedure: as §1

[12] = test system: Mycoplasma hyorhinis; experiment: MIC, broth-dilution microtiter test (Table III); type: cell-based; design: unit not given here
Procedure: as §1

[13] = test system: Mycoplasma synoviae; experiment: MIC, broth-dilution microtiter test (Table III); type: cell-based; design: unit not given here
Procedure: as §1

[14] = test system: Pasteurella haemolytica 22C; experiment: MIC, broth-dilution microtiter test (Table III); type: cell-based; design: unit not given here
Procedure: as §1

[15] = test system: Pasteurella haemolytica 23C; experiment: MIC, broth-dilution microtiter test (Table III); type: cell-based; design: unit not given here
Procedure: as §1

[16] = test system: Pasteurella haemolytica 41D; experiment: MIC, broth-dilution microtiter test (Table III); type: cell-based; design: unit not given here
Procedure: as §1

[17] = test system: Pasteurella multocida 17E; experiment: MIC, broth-dilution microtiter test (Table III); type: cell-based; design: unit not given here; settings: bovine isolate
Procedure: as §1

[18] = test system: Pasteurella multocida 22A; experiment: MIC, broth-dilution microtiter test (Table III); type: cell-based; design: unit not given here
Procedure: as §1

[19] = test system: Pasteurella multocida 40G; experiment: MIC, broth-dilution microtiter test (Table III); type: cell-based; design: unit not given here
Procedure: as §1

[20] = test system: Pasteurella multocida 60A; experiment: MIC, broth-dilution microtiter test (Table III); type: cell-based; design: unit not given here; settings: avian isolate
Procedure: as §1

[21] = test system: Pasteurella multocida 68C; experiment: MIC, broth-dilution microtiter test (Table III); type: cell-based; design: unit not given here
Procedure: as §1

[22] = test system: Staphylococcus aureus; experiment: MIC, broth-dilution microtiter test (Table III); type: cell-based; design: unit not given here
Procedure: as §1

[23] = test system: Streptococcus sp. 80; experiment: MIC, broth-dilution microtiter test (Table III); type: cell-based; design: unit not given here
Procedure: as §1

[24] = test system: Streptococcus pyogenes C203; experiment: ED50 in mice with experimental infections (Table IV); type: in vivo; settings: Streptococcus pyogenes, doses given 1 and 4 hours postinfection
Procedure: The OMT ester derivatives of this invention have shown in vivo antimicrobial activity against experimental bacterial infections caused by gram-positive bacteria. When two doses of test compound were administered to mice with experimental infections, the activity observed was measured as an ED50 value [effective dose in mg/kg to protect 50% of the test animals: see Warren Wick, et al., J. Bacteriol. 81, 233-235 (1961)].
^a mg/kg × 2; doses given 1 and 4 hours postinfection

[25] = test system: Pasteurella multocida; experiment: Treatment of Pasteurella infections in chicks (Table V); type: in vivo, one-day-old chicks; settings: Pasteurella multocida, sc, 4 h; 30 mg/kg by subcutaneous injection one and four hours post challenge; read-out: Deaths in Treated Chicks/Number Treated (converted)
How it was run: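 One-day-old chicks challenged subcutaneously with avian P. multocida (0.1 ml of 10^-3 dilution of 20-hour tryptose broth culture). Esters given at 30 mg/kg subcutaneously at 1 and 4 hours post challenge. Untreated infected controls, ten per group.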

[26] = C203, oral, read-out: ED50, Oral
[27] = C203, sc, subcutaneous, read-out: ED50, Subcutaneous

CCC1OC(=O)CC(O)C(C)C(OC2OC(C)C(O)C(N(C)C)C2O)C(CC=O)CC(C)C(=O)C=CC(C)=CC1COC(=O)Cc1cccnc1 (stereo not drawn) [Compound 44, 23-O-(3-Pyridylacetyl)-OMT]
minimal inhibitory concentration (MIC) [1]: 0.25
minimal inhibitory concentration (MIC) [2]: 0.25
minimal inhibitory concentration (MIC) [3]: 0.25
minimal inhibitory concentration (MIC) [4]: 0.25
minimal inhibitory concentration (MIC) [5]: 0.125
minimal inhibitory concentration (MIC) [6]: 0.125
minimal inhibitory concentration (MIC) [7]: 0.125
minimal inhibitory concentration (MIC) [8]: 0.125
minimal inhibitory concentration (MIC) [9]: 0.03
minimal inhibitory concentration (MIC) [10]: 0.015
minimal inhibitory concentration (MIC) [11]: 0.78
minimal inhibitory concentration (MIC) [12]: 0.78
minimal inhibitory concentration (MIC) [13]: < 0.05
minimal inhibitory concentration (MIC) [14]: 3.12
minimal inhibitory concentration (MIC) [15]: 6.25
minimal inhibitory concentration (MIC) [16]: 6.25
minimal inhibitory concentration (MIC) [17]: 3.12
minimal inhibitory concentration (MIC) [18]: 3.12
minimal inhibitory concentration (MIC) [19]: 3.12
minimal inhibitory concentration (MIC) [20]: 0.78
minimal inhibitory concentration (MIC) [21]: 3.12
minimal inhibitory concentration (MIC) [22]: 0.39
minimal inhibitory concentration (MIC) [23]: 0.39
ED50 [24, 26]: 150 mg/kg
ED50 [24, 27]: 13 mg/kg
mortality at 30 mg/kg [25]: 0%

CCC1OC(=O)CC(O)C(C)C(OC2OC(C)C(O)C(N(C)C)C2O)C(CC=O)CC(C)C(=O)C=CC(C)=CC1COC(=O)CSc1ccc(Cl)c(Cl)c1 (stereo not drawn) [Compound 38, 23-O-[(3,4-Dichlorophenylthio)acetyl]-OMT]
minimal inhibitory concentration (MIC) [1]: 0.125
minimal inhibitory concentration (MIC) [2]: 0.25
minimal inhibitory concentration (MIC) [3]: 0.125
minimal inhibitory concentration (MIC) [4]: 0.25
minimal inhibitory concentration (MIC) [5]: 0.25
minimal inhibitory concentration (MIC) [6]: 0.25
minimal inhibitory concentration (MIC) [7]: 0.125
minimal inhibitory concentration (MIC) [8]: 0.125
minimal inhibitory concentration (MIC) [9]: 0.03
minimal inhibitory concentration (MIC) [10]: 0.06
minimal inhibitory concentration (MIC) [11]: < 0.05
minimal inhibitory concentration (MIC) [12]: 3.12
minimal inhibitory concentration (MIC) [13]: 0.097
minimal inhibitory concentration (MIC) [14]: 3.12
minimal inhibitory concentration (MIC) [15]: 6.25
minimal inhibitory concentration (MIC) [16]: 6.25
minimal inhibitory concentration (MIC) [17]: 1.56
minimal inhibitory concentration (MIC) [18]: 3.12
minimal inhibitory concentration (MIC) [19]: 1.56
minimal inhibitory concentration (MIC) [20]: 1.56
minimal inhibitory concentration (MIC) [21]: 1.56
minimal inhibitory concentration (MIC) [22]: < 0.05
minimal inhibitory concentration (MIC) [23]: < 0.05
ED50 [24, 26]: > 150 mg/kg
mortality at 30 mg/kg [25]: 10%

CCC1OC(=O)CC(O)C(C)C(OC2OC(C)C(OC(C)=O)C(N(C)C)C2OC(C)=O)C(CC=O)CC(C)C(=O)C=CC(C)=CC1COC(=O)CSc1ccc(Cl)c(Cl)c1 (stereo not drawn) [Compound 37, 2',4'-Di-O-acetyl-23-O-[(3,4-dichlorophenylthio)acetyl]-OMT]
minimal inhibitory concentration (MIC) [1]: 2
minimal inhibitory concentration (MIC) [2]: 4
minimal inhibitory concentration (MIC) [3]: 2
minimal inhibitory concentration (MIC) [4]: 4
minimal inhibitory concentration (MIC) [5]: 2
minimal inhibitory concentration (MIC) [6]: 4
minimal inhibitory concentration (MIC) [7]: 2
minimal inhibitory concentration (MIC) [8]: 2
minimal inhibitory concentration (MIC) [9]: 0.5
minimal inhibitory concentration (MIC) [10]: 0.5
minimal inhibitory concentration (MIC) [11]: < 0.05
minimal inhibitory concentration (MIC) [12]: 6.25
minimal inhibitory concentration (MIC) [13]: 0.78
minimal inhibitory concentration (MIC) [14]: 6.25
minimal inhibitory concentration (MIC) [15]: 6.25
minimal inhibitory concentration (MIC) [16]: 12.5
minimal inhibitory concentration (MIC) [17]: 1.56
minimal inhibitory concentration (MIC) [18]: 6.25
minimal inhibitory concentration (MIC) [19]: 3.12
minimal inhibitory concentration (MIC) [20]: 3.12
minimal inhibitory concentration (MIC) [21]: 0.78
minimal inhibitory concentration (MIC) [22]: 0.39
minimal inhibitory concentration (MIC) [23]: < 0.05
ED50 [24, 26]: > 150 mg/kg
mortality at 30 mg/kg [25]: 100%

CCC1OC(=O)CC(O)C(C)C(OC2OC(C)C(O)C(N(C)C)C2O)C(CC=O)CC(C)C(=O)C=CC(C)=CC1COC(=O)[C@H](O)c1ccccc1 (stereo partly drawn) [Compound 42, 23-O-Mandeloyl-OMT]
minimal inhibitory concentration (MIC) [1]: 0.25
minimal inhibitory concentration (MIC) [2]: 0.5
minimal inhibitory concentration (MIC) [3]: 0.25
minimal inhibitory concentration (MIC) [4]: 0.5
minimal inhibitory concentration (MIC) [5]: 0.25
minimal inhibitory concentration (MIC) [6]: 0.5
minimal inhibitory concentration (MIC) [7]: 0.25
minimal inhibitory concentration (MIC) [8]: 0.25
minimal inhibitory concentration (MIC) [9]: 0.06
minimal inhibitory concentration (MIC) [10]: 0.125
minimal inhibitory concentration (MIC) [11]: 0.39
minimal inhibitory concentration (MIC) [12]: 12.5
minimal inhibitory concentration (MIC) [13]: 0.195
minimal inhibitory concentration (MIC) [14]: 6.25
minimal inhibitory concentration (MIC) [15]: 6.25
minimal inhibitory concentration (MIC) [16]: 3.12
minimal inhibitory concentration (MIC) [17]: 6.25
minimal inhibitory concentration (MIC) [18]: 6.25
minimal inhibitory concentration (MIC) [19]: 1.56
minimal inhibitory concentration (MIC) [20]: 3.12
minimal inhibitory concentration (MIC) [21]: 3.12
minimal inhibitory concentration (MIC) [22]: 0.78
minimal inhibitory concentration (MIC) [23]: 0.39
ED50 [24, 26]: > 150 mg/kg
ED50 [24, 27]: 11 mg/kg
mortality at 30 mg/kg [25]: 0%
